Measured values from US20020115642A1, “Beta-lactam antibiotics” (priority 2000, published 2002).
pIC50: −log10 of the molar value. ≈ marks a conversion by molar mass, not a printed value. Where two headings read alike, the source gives them in different places.

Legend:
E. coli N = assay: Susceptibility testing (MIC, modified NCCLS method); type: cell-based, Escherichia coli; settings: Escherichia coli, read-out: MIC
Method: (§1) The NCCLS (National Committee for Clinical Laboratory Standards) method to determine MIC's of antimicrobial compounds was modified for high-throughput screening. All stocks of tested compounds were prepared in either water or in dimethylsulfoxide (DMSO), depending on the solubility. […] Briefly 20 2-fold serial dilutions of testing compounds from the highest concentration were made in a 384-well microtiter plate. Each well was inoculated with testing bacteria in broth to a final concentration of approximately 1-1.5×10^6 cells/ml. Bacterial growth was determined by the increase of optical density at 600 nm using a microplate reader (Tecan SpectraFluor Plus).

E. coli/TEM-1 = assay: as above; type: cell-based, Escherichia coli; settings: Escherichia coli
Method: as §1

Staphylococcus aureus = assay: as above; type: cell-based; settings: Staphylococcus aureus
Outline: (§2)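 Readout OD600 increase. Compounds (aqueous or DMSO stocks) serially diluted 2-fold across 20 concentrations, then inoculated with bacterial broth culture to final ~1-1.5×10^6 cells/ml; screening-adapted NCCLS microdilution.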

E. faecalis = assay: as above; type: cell-based, Enterococcus faecalis; settings: for MIC: Enterococcus faecalis
Outline: as §2

E. cloacae = assay: as above; type: cell-based, Enterobacter cloacae; settings: for MIC: Enterobacter cloacae
Method: as §1

E. aerogenes = assay: as above; type: cell-based, Enterobacter aerogenes; settings: for MIC: Klebsiella aerogenes
Method: as §1

K. pneumoniae = assay: as above; type: cell-based, Klebsiella pneumoniae; settings: Klebsiella pneumoniae
Method: as §1

S. epidermidis = assay: as above; type: cell-based, Staphylococcus epidermidis; settings: S. epidermidis (5)
Method: as §1

S. pneumoniae = assay: as above; type: cell-based, Streptococcus pneumoniae; settings: S. pneumoniae (3)
Method: as §1

E. faecium = assay: as above; type: cell-based, Enterococcus faecium; settings: E. faecium (6)
Method: as §1

P. aeruginosa = assay: as above; type: cell-based, Pseudomonas aeruginosa; settings: Pseudomonas aeruginosa, read-out: MIC
Method: as §1

E coli R(Tem1) = assay: Inhibition of bacterial growth (IC50, OD600); type: cell-based; settings: for IC50 ratio N/R: N versus R (Tem1)
Method: Compounds of the invention were tested for their ability to inhibit the growth of β-lactam sensitive and resistant bacteria by contacting samples of such cells with various dilutions of the compositions, incubating the cells at 37° C. in the presence of these compositions and then measuring the number of viable cells present in each sample.
Two compounds of the invention were tested, Compound (9) and Compound (1l). Incubation of bacterial cells was performed for two time periods, 10 hours and 20 hours. Four E. coli strains were used for the test. These strains were all derived from the strain NovaBlue (NovaGen Inc., Madison, Wis.). E. coli N is a normal, β-lactam sensitive strain. E coli R(Tem1) is a β-lactam resistant strain with a β-lactamase gene on a plasmid. E. coli C(Tem4O-15) is a β-lactam resistant strain with a β-lactam inhibitor resistant β-lactamase gene, and E. coli C(Tem3 1-27) is β-lactam resistant strain with an alternative β-lactam inhibitor resistant β-lactamase gene.
The various E. coli strains were each treated with dilutions of the compounds of the invention. […] The number of viable cells at each time point was determined by measuring the OD600 of each cell sample.
After measuring the number of viable cells present, the IC50 for each sample was determined. […] In addition, both compounds were effective at inhibiting the growth of both antibiotic sensitive and resistant bacterial cells.

[1] = tested on: UDP-glucuronosyltransferase; assay: Glucuronidation assay; type: in vitro ADME, human; settings: 100 μM, 100 μg human liver microsome, 37° C., 1 hour, TLC
Method: Assays were conducted as outlined in Example 15, using 100 μM Compound (9), triclosan or cephalothin incubated with 100 μg human liver microsome at 37° C. for 1 hour. The reactants were analyzed on TLC plate, and glucuronidated compounds were visualized by MolecularDynamics Storm 820.
Glucuronidation assay was performed based on modified procedure from Bansal and Gessner (1980) Anal. Biochem. 109:321-329. Reactions were performed in 50 mM Tris buffer, pH 7.6, containing 10 mM MgCl2, ImM UDPGA, 0.04 μCi of ^14C-UDPGA, 0.1 mM substrate, and 100 μg human liver microsome. The final volume was 100 μL. Reactions were incubated at 37° C. for one hour and the reactants extracted with 200 μL of 100% ethanol. The protein was removed by centrifugation at 12,000×g for 5 minutes in an Eppendorf centrifuige. The supernatant was dried and resuspended in 30 μL of 100% methanol and spotted on a Whatman glass-backed linear k TLC plate. Chromatography was performed in a mixture of 1-butanol/acetone/acetic acid/water (35:35:10:20). The TLC plate was then dried and exposed to phosphor imager overnight, then monitored by imaging (MolecularDynamics Storm 820).

[2] = tested on: TEM-52, an antibiotic-resitant E. coli; settings: TEM-52 versus wild-type; Fletcher (2001); cited from earlier work
[3] = tested on: O=C(Cc1cccs1)N[C@@H]1C(=O)N2C(C(=O)O)=C(/C=C/c3ccc([N+](=O)[O-])cc3[N+](=O)[O-])CS[C@H]12; assay: purified protein, by the assay type; settings: other: progress curve analysis at 16 μM Compound (9) and […] TEM-1 β-lactamase, 37° C.

With `CC(=O)OCC1=C(C(=O)O)N2C(=O)[C@@H](NC(=O)Cc3cccs3)[C@H]2SC1` [Cephalothin, cephalothin, reference compound] the MIC (E. coli N; E. coli, BLA neg., drug alone) was 16 µg/mL (≈ 40.4 µM), the MIC (E. coli/TEM-1) was > 32 µg/mL and the MIC (Staphylococcus aureus; ATCC11632, ATCC 11632, methicillin-sensitive, β-lactamase Neg./Pos., read-out: MIC) was 0.2 µg/mL (≈ 0.504 µM). The MIC (Staphylococcus aureus; ATCC13301, ATCC 13301, methicillin-sensitive, β-lactamase Positive, read-out: MIC) was 6.25 µg/mL (≈ 15.8 µM), the MIC (Staphylococcus aureus; ATCC14154, ATCC 14154, methicillin-sensitive, β-lactamase Positive, read-out: MIC) was 0.39 µg/mL (≈ 0.984 µM) and the MIC (Staphylococcus aureus; ATCC33591, ATCC 33591, methicillin-resistant, β-lactamase Positive, read-out: MIC) was 0.56 µg/mL (≈ 1.41 µM). For the same compound, the MIC (Staphylococcus aureus; ATCC33592, ATCC 33592, methicillin-sensitive, β-lactamase Positive, read-out: MIC) was 1.56 µg/mL (≈ 3.93 µM), the MIC (Staphylococcus aureus; ATCC33593, ATCC 33593, methicillin-resistant, β-lactamase Positive, read-out: MIC) was 0.78 µg/mL (≈ 1.97 µM) and the MIC (Staphylococcus aureus; ATCC33594, ATCC 33594, methicillin-sensitive, β-lactamase Positive, read-out: MIC) was 0.2 µg/mL (≈ 0.504 µM). The MIC (Staphylococcus aureus; ATCC43300, ATCC 43300, methicillin-sensitive, β-lactamase Neg./Pos., read-out: MIC) was 0.39 µg/mL (≈ 0.984 µM), the MIC (Staphylococcus aureus; ATCC700260, ATCC 700260, methicillin-sensitive, β-lactamase Positive, read-out: MIC) was 0.39 µg/mL (≈ 0.984 µM) and the MIC (Staphylococcus aureus; ATCC700698, ATCC 700698, methicillin-resistant, β-lactamase Negative, read-out: MIC) was 100 µg/mL (≈ 252 µM). For the same compound, the MIC (Staphylococcus aureus; ATCC700699, ATCC 700699, methicillin-resistant, β-lactamase Negative, read-out: MIC) was 100 µg/mL (≈ 252 µM), the MIC (Staphylococcus aureus; ATCC700787, ATCC 700787, methicillin-resistant, β-lactamase Positive, read-out: MIC) was 50 µg/mL (≈ 126 µM) and the MIC (Staphylococcus aureus; ATCC700788, ATCC 700788, methicillin-resistant, β-lactamase Positive, read-out: MIC) was 3.13 µg/mL (≈ 7.9 µM). It also gave an MIC (Staphylococcus aureus; ATCC700789, ATCC 700789, methicillin-resistant, β-lactamase Positive, read-out: MIC) of 6.25 µg/mL (≈ 15.8 µM), an MIC (Staphylococcus aureus; MRSA, MRSA tested (7), read-out: Geometric mean of MIC) of 10.2 µg/mL (≈ 25.9 µM) and an MIC (Staphylococcus aureus; MSSA, MSSA tested (7), read-out: Geometric mean of MIC) of 0.58 µg/mL (≈ 1.46 µM). It also gave an MIC (Staphylococcus aureus; S. aureus (14), read-out: Geometric mean of MIC) of 2.45 µg/mL (≈ 6.18 µM), an MIC (Staphylococcus aureus; S. aureus β-lactamase negative (2), read-out: Geometric mean of MIC) of 100 µg/mL (≈ 252 µM) and an MIC (Staphylococcus aureus; S. aureus β-lactamase positive (12), read-out: Geometric mean of MIC) of 1.32 µg/mL (≈ 3.33 µM). The MIC range (E. faecalis; E. faecalis (7)) was 25 to 100 µg/mL, the MIC (E. faecalis; E. faecalis (7), read-out: GM* MIC (geometric mean)) was 61 µg/mL (≈ 154 µM) and the MIC range (E. cloacae; E. cloacae (1)) was >100 µg/mL. For the same compound, the MIC (E. cloacae; E. cloacae (1), read-out: GM* MIC (geometric mean)) was > 100 µg/mL, the MIC range (E. aerogenes; E. aerogenes (5)) was >100 µg/mL and the MIC (E. aerogenes; E. aerogenes (5), read-out: GM* MIC (geometric mean)) was > 100 µg/mL. The MIC (K. pneumoniae; K. pneumoniae (5), read-out: GM* MIC (geometric mean)) was > 66 µg/mL, the MIC range (S. epidermidis) was 0.2 to 25 µg/mL and the MIC (S. epidermidis; Staphylococcus epidermidis, read-out: GM* MIC (geometric mean)) was 1.81 µg/mL (≈ 4.57 µM). The MIC range (S. pneumoniae) was 0.06 to 2 µg/mL, the MIC (S. pneumoniae; Streptococcus pneumoniae, read-out: GM* MIC (geometric mean)) was 0.247 µg/mL (≈ 0.623 µM) and the MIC range (E. faecium) was >100 µg/mL. For the same compound, the MIC (E. faecium; Enterococcus faecium, read-out: GM* MIC (geometric mean)) was > 100 µg/mL.

`O=C(Cn1cnnn1)NC1C(=O)N2C(C(=O)O)=C(COc3cc(Cl)ccc3Oc3ccc(Cl)cc3Cl)CS[C@H]12` (stereo partly shown) [Compound 29, 3-(2-(2,4-Dichlorophenoxy)-5-chlorophenoxy)methyl-7-(1-tetrazoleacetamido)-3-cephem-4-carboxylic acid] gave an MIC (E. coli N; E. coli (N)) of 2 µg/mL (≈ 3.27 µM), an MIC (E. coli/TEM-1) of 0.063 µg/mL (≈ 0.103 µM) and an MIC (Staphylococcus aureus; ATCC11632, S. aureus ATCC 11632, read-out: MIC) of 0.063 µg/mL (≈ 0.103 µM). For the same compound, the MIC (Staphylococcus aureus; ATCC33594, S. aureus ATCC 33594, read-out: MIC) was 0.063 µg/mL (≈ 0.103 µM), the MIC (Staphylococcus aureus; ATCC700260, S. aureus ATCC 700260, read-out: MIC) was 0.063 µg/mL (≈ 0.103 µM) and the MIC (Staphylococcus aureus; ATCC700699, S. aureus ATCC 700699, read-out: MIC) was 0.125 µg/mL (≈ 0.204 µM). For the same compound, the MIC (E. faecalis; ATCC49757, E. faecalis ATCC 49757, read-out: MIC) was 8 µg/mL (≈ 13.1 µM), the MIC (E. faecalis; ATCC700802, E. faecalis ATCC 700802, read-out: MIC) was 16 µg/mL (≈ 26.2 µM) and the MIC (E. cloacae; ATCC23355, E. cloacae ATCC 23355, read-out: MIC) was 1 µg/mL (≈ 1.63 µM). For the same compound, the MIC (E. aerogenes; ATCC35028, E. aerogenes ATCC 35028, read-out: MIC) was 32 µg/mL (≈ 52.3 µM), the MIC (K. pneumoniae; ATCC51503, K. pneumoniae ATCC 51503, read-out: MIC) was 8 µg/mL (≈ 13.1 µM) and the MIC (K. pneumoniae; ATCC700721, K. pneumoniae ATCC 700721, read-out: MIC) was 1 µg/mL (≈ 1.63 µM). For the same compound, the MIC (P. aeruginosa; ATCC21726, P. aeruginosa ATCC 21726) was > 32 µg/mL, the MIC (P. aeruginosa; ATCC29872, P. aeruginosa ATCC 29872) was > 32 µg/mL and the melting point was 112 °C.

In the case of `Oc1cc(Cl)ccc1Oc1ccc(Cl)cc1Cl` [Triclosan, triclosan, reference compound], the “IC50 ratio N/R” value (E coli R(Tem1); 10 hours) was “N/R = 1555x”, the “IC50 ratio N/R” value (E coli R(Tem1); 20 hours) was “N/R = 2.5x” and the pIC50 (E coli R(Tem1); Escherichia coli, 10 h, read-out: IC50 10 hours, Cell R (Tem1), 10 hours) was 9.78. The pIC50 (E coli R(Tem1); read-out: IC50 10 hours, Cell R (Tem1), 10 hours) was 9.62 and the “glucuronidation by human liver microsome” value [1] was “glucuronidated”.

For `CO/N=C(\C(=O)N[C@@H]1C(=O)N2C(C(=O)O)=C(COC(C)=O)CS[C@H]12)c1csc(N)n1` [cefotaxime], the “fold more resistant than wild-type E coli” value [2] is listed as “more than 500 fold”.

With TEM-1 β-lactamase (Escherichia coli) the Km [3] was 15 µM, the kcat [3] was 3.3 s⁻¹ and the kcat/Km [3] was 220000 M⁻¹ s⁻¹.
